In ChEMBL document CHEMBL1122811, “Structure-activity studies on antidepressant 2,2-diarylethylamines” (J Med Chem, 1984):
Activity calls are given as the source filed them.

Assays:
[1] = organism: Mus musculus; assay: Antidepressant activity measured by effects on […] (TBZ) inhibited exploratory activity.; assay type: functional
[2] = tested on: Mus musculus; assay: Antidepressant activity measured by tetrabenazine (TBZ) induced ptosis in mice after intraperitoneal administration; assay type: functional; settings: ip
[3] = tested on: Mus musculus; assay: Antidepressant activity measured by maximal electroshock seizure threshold (MEST) assay in TBZ treated mice after ip administration; assay type: functional
[4] = tested on: Mus musculus; assay: Antidepressant activity measured by maximal electroshock seizure threshold (MEST) assay in untreated mice after ip administration; assay type: functional
[5] = Compound was evaluated for 50% lethal dose in mice; LD50 range is 30-100; assay type: ADME, organism-based; settings: mouse, in vivo
[6] = tested on: Mus musculus; assay: Compound was evaluated for antidepressant activity measured by tetrabenazine (TBZ) induced exploratory activity in mice after 60 mg/kg intraperitoneal administration; inactive; assay type: functional, organism-based; parameters: dose 60 mg/kg
[7] = tested on: Mus musculus; assay: Compound was evaluated for antidepressant activity measured by tetrabenazine (TBZ) induced ptosis in mice after 60 mg/kg intraperitoneal administration; inactive; assay type: functional, organism-based; parameters: dose 60 mg/kg
[8] = tested on: Mus musculus; assay: Compound was evaluated for antidepressant activity measured by tetrabenazine (TBZ) induced exploratory activity in mice after 30 mg/kg intraperitoneal administration; Inactive; assay type: functional, organism-based; parameters: dose 30 mg/kg
[9] = tested on: Mus musculus; assay: Compound was evaluated for antidepressant activity measured by tetrabenazine (TBZ) induced ptosis in mice after 30 mg/kg intraperitoneal administration; Inactive; assay type: functional, organism-based; parameters: dose 30 mg/kg
[10] = Compound was evaluated for 50% lethal dose in mice; LD50 range 100-300 mg/kg; assay type: ADME, organism-based; settings: mouse, in vivo
[11] = tested on: Mus musculus; assay: Compound was evaluated for antidepressant activity measured by tetrabenazine (TBZ) induced exploratory activity in mice after 30 mg/kg intraperitoneal administration; inactive; assay type: functional, organism-based; parameters: dose 30 mg/kg
[12] = tested on: Mus musculus; assay: Compound was evaluated for antidepressant activity measured by tetrabenazine (TBZ) induced exploratory activity in mice after 30 mg/kg intraperitoneal administration; assay type: functional; settings: ip
[13] = tested on: Mus musculus; assay: Compound was evaluated for antidepressant activity measured by tetrabenazine (TBZ) induced ptosis in mice after 30 mg/kg intraperitoneal administration; assay type: functional; settings: ip
[14] = Compound was evaluated for 50% lethal dose in mice; LD50 range is 100-300; assay type: ADME, organism-based; settings: mouse, in vivo
[15] = tested on: Mus musculus; assay: Compound was evaluated for antidepressant activity measured by tetrabenazine (TBZ) induced ptosis in mice after 30 mg/kg intraperitoneal administration; inactive; assay type: functional, organism-based; parameters: dose 30 mg/kg
[16] = tested on: Mus musculus; assay: Meso form was evaluated for antidepressant activity measured by tetrabenazine (TBZ) induced exploratory activity in mice after intraperitoneal administration; assay type: functional; settings: ip
[17] = tested on: Mus musculus; assay: Meso form was evaluated for antidepressant activity measured by tetrabenazine (TBZ) induced ptosis in mice after intraperitoneal administration (Two diastereomers (7/6) were present); assay type: functional; settings: ip
[18] = tested on: Mus musculus; assay: dl form was evaluated for antidepressant activity measured by tetrabenazine (TBZ) induced exploratory activity in mice after intraperitoneal administration; assay type: functional; settings: ip
[19] = tested on: Mus musculus; assay: dl form was evaluated for antidepressant activity measured by tetrabenazine (TBZ) induced ptosis in mice after intraperitoneal administration; assay type: functional; settings: ip
[20] = Compound was evaluated for 50% lethal dose in mice; LD50 range 300-1000 mg/kg; assay type: ADME, organism-based; settings: mouse, in vivo
[21] = Compound was evaluated for 50% lethal dose in mice; LD50 range 30-100 mg/kg; assay type: ADME, organism-based; settings: mouse, in vivo
[22] = tested on: Mus musculus; assay: Compound was evaluated for antidepressant activity measured by tetrabenazine (TBZ) induced ptosis in mice after 10 mg/kg intraperitoneal administration; Inactive; assay type: functional, organism-based; parameters: dose 10 mg/kg
[23] = tested on: Mus musculus; assay: Compound was evaluated for antidepressant activity measured by tetrabenazine (TBZ) induced exploratory activity in mice after 60 mg/kg intraperitoneal administration; Inactive; assay type: functional, organism-based; parameters: dose 60 mg/kg
[24] = tested on: Mus musculus; assay: Compound was evaluated for antidepressant activity measured by tetrabenazine (TBZ) induced ptosis in mice after intraperitoneal administration; Lethal at 60 Mg/kg; assay type: functional; settings: ip

CNCC(c1ccccc1)c1ccc(OC)c(OC)c1 (configuration not stated)
ED50 [1]: > 30 mg/kg
ED50 [2]: 11 mg/kg

CC(=O)OCCN(CCOC(C)=O)CC(c1ccccc1)c1ccccc1
ED50 [1]: 23 mg/kg
ED50 [2]: 13 mg/kg

CNCC(c1ccccc1)c1ccccc1
ED50 [3]: 9 mg/kg
ED50 [4]: 8.2 mg/kg
ED50 [1]: 5 mg/kg
ED50 [2]: 2.3 mg/kg
LD50 [5]: 30 mg/kg

CN(C)CCCN1c2ccccc2CCc2ccccc21 [IMIPRAMINE]
ED50 [3]: 14.9 mg/kg
ED50 [4]: 20.3 mg/kg
ED50 [1]: 1.3 mg/kg
ED50 [2]: 0.9 mg/kg

COc1ccc(C(CN(CCO)CCO)c2ccc(OC)c(OC)c2)cc1OC
ED50 [6]: inactive
ED50 [7]: inactive

NCC(c1ccc(Cl)cc1)c1ccc(Cl)cc1
ED50 [8]: inactive
ED50 [9]: inactive

CCN(CCO)CCC(c1ccccc1)c1ccccc1
ED50 [3]: 21.4 mg/kg
ED50 [4]: > 25 mg/kg
ED50 [1]: 10 mg/kg
ED50 [2]: 1.9 mg/kg
LD50 [10]: 300 mg/kg

COc1ccc(C(CN)c2ccc(OC)c(OC)c2)cc1OC
ED50 [6]: inactive
ED50 [7]: inactive

COc1ccc(C(CN(C)C)c2ccccc2)cc1OC (configuration not stated)
ED50 [11]: inactive
ED50 [2]: 14 mg/kg

CN(C)CC(c1ccc(Cl)cc1)c1ccc(Cl)cc1
ED50 [1]: 11 mg/kg
ED50 [2]: 16 mg/kg

OCCN(CCO)CC(c1ccccc1)c1ccccc1
ED50 [3]: 15.4 mg/kg
ED50 [4]: 20.3 mg/kg
ED50 [2]: 2 mg/kg
LD50 [10]: 300 mg/kg

CNCC(c1ccc(Cl)cc1)c1ccc(Cl)cc1
ED50 [12]: 14 mg/kg
ED50 [13]: 13 mg/kg

OCCN(CCO)CCC(c1ccccc1)c1ccccc1
ED50 [1]: 24 mg/kg
ED50 [2]: 20 mg/kg

c1ccc2c(c1)cc1n2CCCNC1 [AZEPINDOLE]
ED50 [3]: 32 mg/kg
ED50 [4]: 46 mg/kg
ED50 [1]: 11 mg/kg
ED50 [2]: 9 mg/kg
LD50 [14]: 100 mg/kg

OCCN(CCO)CC(c1ccccc1)C1CCCCC1 (configuration not stated)
ED50 [1]: ~50 mg/kg
ED50 [2]: 22 mg/kg

OCCN(CCO)C(Cc1ccccc1)c1ccccc1 (configuration not stated)
ED50 [11]: inactive
ED50 [15]: inactive

CC(N)C(c1ccccc1)c1ccccc1 (configuration not stated)
ED50 [1]: 3.5 mg/kg
ED50 [2]: 3.8 mg/kg

CC(O)CN(CC(C)O)CC(c1ccccc1)c1ccccc1 (configuration not stated)
ED50 [16]: 18 mg/kg
ED50 [17]: 7 mg/kg
ED50 [18]: 11 mg/kg
ED50 [19]: 6 mg/kg

OCCN(CCO)CCc1ccccc1
ED50 [3]: > 50 mg/kg
ED50 [4]: > 50 mg/kg
ED50 [1]: 17 mg/kg
ED50 [2]: 12 mg/kg
LD50 [20]: 1000 mg/kg

NCC(O)(c1ccccc1)c1ccccc1
ED50 [3]: 9.9 mg/kg
ED50 [4]: 8.1 mg/kg
ED50 [1]: 9 mg/kg
ED50 [2]: 6 mg/kg
LD50 [21]: 100 mg/kg

OCCN(CCO)CC(O)(c1ccccc1)c1ccccc1
ED50 [1]: 80 mg/kg
ED50 [2]: 8 mg/kg

NCC(F)(c1ccccc1)c1ccccc1
ED50 [8]: inactive
ED50 [22]: inactive

COc1ccc(C(CN)c2ccc(OC)cc2)cc1
ED50 [23]: inactive
ED50 [24]: > 10 mg/kg

COc1ccc(C(CN)c2ccccc2)cc1OC (configuration not stated)
ED50 [11]: inactive
ED50 [15]: inactive

COc1ccc(C(CN(CCO)CCO)c2ccccc2)cc1OC (configuration not stated)
ED50 [6]: inactive
ED50 [7]: inactive

OCCN(CCO)CC(c1cccs1)c1cccs1
ED50 [11]: inactive
ED50 [15]: inactive

NCC(c1ccccc1)c1ccccc1
ED50 [3]: > 15 mg/kg
ED50 [4]: 10 mg/kg
ED50 [1]: 1.8 mg/kg
ED50 [2]: 1.7 mg/kg
LD50 [5]: 30 mg/kg

CN(C)CC(c1ccccc1)c1ccccc1
ED50 [3]: 3 mg/kg
ED50 [4]: 7 mg/kg
ED50 [1]: 9 mg/kg
ED50 [2]: 2.5 mg/kg
LD50 [5]: 100 mg/kg

COc1ccc(C(CN(CCO)CCO)c2ccc(OC)cc2)cc1
ED50 [6]: inactive
ED50 [7]: inactive

CCNCCC(c1ccccc1)c1ccccc1
ED50 [1]: 15 mg/kg
ED50 [2]: 23 mg/kg
